Measured values taken from ChEMBL document CHEMBL5241118, “4-Aminopyrazolopyrimidine scaffold and its deformation in the design of tyrosine and serine/threonine kinase inhibitors in medicinal chemistry” (RSC Med Chem, 2022).
Each block holds one molecule with its values, some of them ahead of it.

What was measured:
HBL = experiment: Antiproliferative activity against human HBL cells assessed as inhibition of cell growth; format: functional
[1] = target: Phosphatidylinositol 4,5-bisphosphate 3-kinase catalytic subunit gamma isoform (Homo sapiens, UniProt P48736); experiment: Binding affinity to PI3Kgamma (unknown origin) assessed as dissociation constant
[2] = target: Phosphatidylinositol 4,5-bisphosphate 3-kinase catalytic subunit beta isoform (Homo sapiens, UniProt P42338); experiment: Binding affinity to PI3Kbeta (unknown origin) assessed as dissociation constant
[3] = target: Phosphatidylinositol 4,5-bisphosphate 3-kinase catalytic subunit alpha isoform (Homo sapiens, UniProt P42336); experiment: Binding affinity to PI3Kalpha (unknown origin) assessed as dissociation constant
[4] = target: Tyrosine-protein kinase Lck (Homo sapiens, UniProt P06239); experiment: Inhibition of His-tagged LCK (62 to 509 residues) (unknown origin) expressed in Sf9 insect cells at 10 uM using poly (Glu, Tyr) 4:1 as substrate incubated for 1 hr by spectrometric analysis
[5] = target: Tyrosine-protein kinase Lyn (Homo sapiens, UniProt P07948); experiment: Inhibition of LYN (unknown origin)
[6] = target: Proto-oncogene tyrosine-protein kinase Src (Homo sapiens, UniProt P12931); experiment: Inhibition of Src kinase (unknown origin) phosphorylation at Tyr416/419 residues incubated for 24 hrs by Western blot analysis
MDA-MB-231 [7] = experiment: Antitumor activity against human MDA-MB-231 cells xenografted in athymic nude mouse assessed as the inhibition of tumor growth at 25 mg/kg, ip administered twice daily for 14 days relative to control; format: functional; details: MDA-MB-231, 336 h, time 14 day, read-out: TGI
MDA-MB-231 [8] = experiment: Antitumor activity against human MDA-MB-231 cells xenografted in athymic nude mouse assessed as the inhibition of tumor growth at 65 mg/kg, ip measured at 24 hrs post-dose relative to control; details: MDA-MB-231, 24 h, read-out: TGI

Chain of Proto-oncogene tyrosine-protein kinase Src (P12931 2-536 limits assumed): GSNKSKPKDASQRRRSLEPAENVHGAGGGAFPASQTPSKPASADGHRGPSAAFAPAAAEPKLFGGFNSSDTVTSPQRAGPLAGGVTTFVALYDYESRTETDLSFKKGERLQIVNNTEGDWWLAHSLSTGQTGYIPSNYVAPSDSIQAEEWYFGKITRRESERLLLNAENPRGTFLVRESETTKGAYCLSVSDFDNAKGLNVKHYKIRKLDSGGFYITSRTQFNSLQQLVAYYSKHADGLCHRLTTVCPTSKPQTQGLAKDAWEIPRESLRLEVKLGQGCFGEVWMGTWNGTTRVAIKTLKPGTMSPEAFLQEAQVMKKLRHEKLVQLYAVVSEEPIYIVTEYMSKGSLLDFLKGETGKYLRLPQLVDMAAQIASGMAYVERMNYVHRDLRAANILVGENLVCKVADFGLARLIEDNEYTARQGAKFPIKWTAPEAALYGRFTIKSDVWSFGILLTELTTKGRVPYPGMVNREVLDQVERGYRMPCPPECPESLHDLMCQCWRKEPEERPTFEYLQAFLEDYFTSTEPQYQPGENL
Chain of Phosphatidylinositol 4,5-bisphosphate 3-kinase catalytic subunit beta isoform (P42338 whole entry, canonical isoform): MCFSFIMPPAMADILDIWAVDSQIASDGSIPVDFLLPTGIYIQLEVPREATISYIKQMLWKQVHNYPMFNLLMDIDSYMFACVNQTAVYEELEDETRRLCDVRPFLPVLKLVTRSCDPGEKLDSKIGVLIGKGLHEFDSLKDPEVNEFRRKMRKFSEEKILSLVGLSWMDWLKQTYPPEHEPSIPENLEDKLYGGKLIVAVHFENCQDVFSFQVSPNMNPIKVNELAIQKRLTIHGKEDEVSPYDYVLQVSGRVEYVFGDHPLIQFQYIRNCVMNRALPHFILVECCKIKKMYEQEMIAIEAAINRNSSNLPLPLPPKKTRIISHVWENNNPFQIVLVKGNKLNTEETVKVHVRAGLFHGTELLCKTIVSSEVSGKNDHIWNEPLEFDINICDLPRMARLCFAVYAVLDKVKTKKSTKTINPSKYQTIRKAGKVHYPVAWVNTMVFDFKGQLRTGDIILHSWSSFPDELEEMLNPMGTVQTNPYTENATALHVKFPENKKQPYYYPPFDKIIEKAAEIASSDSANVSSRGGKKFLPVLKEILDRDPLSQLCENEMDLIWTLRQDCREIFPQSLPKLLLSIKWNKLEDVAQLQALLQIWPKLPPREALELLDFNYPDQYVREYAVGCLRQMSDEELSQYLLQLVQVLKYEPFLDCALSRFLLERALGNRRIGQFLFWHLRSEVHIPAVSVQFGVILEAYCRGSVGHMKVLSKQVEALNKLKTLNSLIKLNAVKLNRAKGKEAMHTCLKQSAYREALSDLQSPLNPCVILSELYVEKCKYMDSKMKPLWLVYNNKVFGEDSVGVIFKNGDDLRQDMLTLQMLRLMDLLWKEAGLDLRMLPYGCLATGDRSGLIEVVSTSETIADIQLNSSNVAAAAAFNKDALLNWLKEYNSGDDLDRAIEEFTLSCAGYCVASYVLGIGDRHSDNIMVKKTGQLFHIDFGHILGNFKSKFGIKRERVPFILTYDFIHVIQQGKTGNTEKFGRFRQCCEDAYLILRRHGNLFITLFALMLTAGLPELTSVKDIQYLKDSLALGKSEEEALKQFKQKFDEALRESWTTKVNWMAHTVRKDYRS
Chain of Tyrosine-protein kinase Lck (P06239 whole entry, the tested form may be a part): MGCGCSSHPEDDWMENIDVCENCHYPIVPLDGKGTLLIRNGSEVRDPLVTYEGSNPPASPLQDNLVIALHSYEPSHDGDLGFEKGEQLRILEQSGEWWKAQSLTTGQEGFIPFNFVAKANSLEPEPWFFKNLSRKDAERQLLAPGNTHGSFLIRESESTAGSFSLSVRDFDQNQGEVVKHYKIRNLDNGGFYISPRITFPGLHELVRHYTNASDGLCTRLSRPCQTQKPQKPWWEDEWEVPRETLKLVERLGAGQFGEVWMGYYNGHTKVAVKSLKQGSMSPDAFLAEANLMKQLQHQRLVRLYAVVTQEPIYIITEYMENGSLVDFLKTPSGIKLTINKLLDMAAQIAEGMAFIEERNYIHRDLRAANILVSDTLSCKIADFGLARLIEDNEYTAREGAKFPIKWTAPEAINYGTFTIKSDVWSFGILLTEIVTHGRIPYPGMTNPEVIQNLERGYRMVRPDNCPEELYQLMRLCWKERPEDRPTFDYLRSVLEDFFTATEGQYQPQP
Chain of Phosphatidylinositol 4,5-bisphosphate 3-kinase catalytic subunit alpha isoform (P42336 whole entry, the tested form may be a part, canonical isoform): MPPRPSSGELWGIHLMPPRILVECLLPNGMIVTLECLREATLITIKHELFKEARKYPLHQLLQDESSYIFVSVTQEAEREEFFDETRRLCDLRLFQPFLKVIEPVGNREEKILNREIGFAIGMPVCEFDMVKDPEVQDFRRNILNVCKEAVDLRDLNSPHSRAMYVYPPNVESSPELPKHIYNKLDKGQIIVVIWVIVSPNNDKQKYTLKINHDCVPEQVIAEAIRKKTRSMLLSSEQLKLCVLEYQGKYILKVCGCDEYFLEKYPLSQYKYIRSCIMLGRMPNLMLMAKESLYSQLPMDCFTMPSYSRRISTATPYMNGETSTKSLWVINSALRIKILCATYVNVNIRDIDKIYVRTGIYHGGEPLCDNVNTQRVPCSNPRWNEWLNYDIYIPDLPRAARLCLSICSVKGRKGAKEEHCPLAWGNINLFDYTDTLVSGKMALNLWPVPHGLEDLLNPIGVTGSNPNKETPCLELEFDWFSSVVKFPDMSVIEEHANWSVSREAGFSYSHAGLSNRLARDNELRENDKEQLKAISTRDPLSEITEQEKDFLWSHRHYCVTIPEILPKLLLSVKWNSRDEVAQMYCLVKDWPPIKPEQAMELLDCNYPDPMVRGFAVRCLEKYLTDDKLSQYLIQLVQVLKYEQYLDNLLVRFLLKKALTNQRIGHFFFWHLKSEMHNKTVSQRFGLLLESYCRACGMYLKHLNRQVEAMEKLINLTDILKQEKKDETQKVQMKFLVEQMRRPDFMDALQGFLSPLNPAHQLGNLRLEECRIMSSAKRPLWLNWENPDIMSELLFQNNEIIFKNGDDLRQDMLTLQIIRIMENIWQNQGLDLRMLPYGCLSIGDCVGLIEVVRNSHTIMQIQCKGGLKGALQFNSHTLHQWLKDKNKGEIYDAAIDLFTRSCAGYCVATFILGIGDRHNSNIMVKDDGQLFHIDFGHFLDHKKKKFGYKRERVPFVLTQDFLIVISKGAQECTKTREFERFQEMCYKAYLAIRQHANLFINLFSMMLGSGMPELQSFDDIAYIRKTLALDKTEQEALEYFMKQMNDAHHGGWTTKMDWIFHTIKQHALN
Chain of Tyrosine-protein kinase Lyn (P07948 whole entry): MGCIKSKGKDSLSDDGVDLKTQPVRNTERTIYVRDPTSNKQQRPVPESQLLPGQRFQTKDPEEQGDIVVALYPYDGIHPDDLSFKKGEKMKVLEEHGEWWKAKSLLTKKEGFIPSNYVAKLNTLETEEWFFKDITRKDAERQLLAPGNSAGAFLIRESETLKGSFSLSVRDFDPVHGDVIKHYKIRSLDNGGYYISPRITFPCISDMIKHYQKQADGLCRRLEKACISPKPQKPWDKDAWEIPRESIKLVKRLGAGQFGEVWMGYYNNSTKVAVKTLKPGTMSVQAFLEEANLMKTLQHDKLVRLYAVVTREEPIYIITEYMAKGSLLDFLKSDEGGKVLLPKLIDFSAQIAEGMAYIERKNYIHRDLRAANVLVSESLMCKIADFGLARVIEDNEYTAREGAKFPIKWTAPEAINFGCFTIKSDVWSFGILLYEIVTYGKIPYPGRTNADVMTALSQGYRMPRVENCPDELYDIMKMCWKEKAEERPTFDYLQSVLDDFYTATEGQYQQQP
Chain of Phosphatidylinositol 4,5-bisphosphate 3-kinase catalytic subunit gamma isoform (P48736 whole entry, canonical isoform): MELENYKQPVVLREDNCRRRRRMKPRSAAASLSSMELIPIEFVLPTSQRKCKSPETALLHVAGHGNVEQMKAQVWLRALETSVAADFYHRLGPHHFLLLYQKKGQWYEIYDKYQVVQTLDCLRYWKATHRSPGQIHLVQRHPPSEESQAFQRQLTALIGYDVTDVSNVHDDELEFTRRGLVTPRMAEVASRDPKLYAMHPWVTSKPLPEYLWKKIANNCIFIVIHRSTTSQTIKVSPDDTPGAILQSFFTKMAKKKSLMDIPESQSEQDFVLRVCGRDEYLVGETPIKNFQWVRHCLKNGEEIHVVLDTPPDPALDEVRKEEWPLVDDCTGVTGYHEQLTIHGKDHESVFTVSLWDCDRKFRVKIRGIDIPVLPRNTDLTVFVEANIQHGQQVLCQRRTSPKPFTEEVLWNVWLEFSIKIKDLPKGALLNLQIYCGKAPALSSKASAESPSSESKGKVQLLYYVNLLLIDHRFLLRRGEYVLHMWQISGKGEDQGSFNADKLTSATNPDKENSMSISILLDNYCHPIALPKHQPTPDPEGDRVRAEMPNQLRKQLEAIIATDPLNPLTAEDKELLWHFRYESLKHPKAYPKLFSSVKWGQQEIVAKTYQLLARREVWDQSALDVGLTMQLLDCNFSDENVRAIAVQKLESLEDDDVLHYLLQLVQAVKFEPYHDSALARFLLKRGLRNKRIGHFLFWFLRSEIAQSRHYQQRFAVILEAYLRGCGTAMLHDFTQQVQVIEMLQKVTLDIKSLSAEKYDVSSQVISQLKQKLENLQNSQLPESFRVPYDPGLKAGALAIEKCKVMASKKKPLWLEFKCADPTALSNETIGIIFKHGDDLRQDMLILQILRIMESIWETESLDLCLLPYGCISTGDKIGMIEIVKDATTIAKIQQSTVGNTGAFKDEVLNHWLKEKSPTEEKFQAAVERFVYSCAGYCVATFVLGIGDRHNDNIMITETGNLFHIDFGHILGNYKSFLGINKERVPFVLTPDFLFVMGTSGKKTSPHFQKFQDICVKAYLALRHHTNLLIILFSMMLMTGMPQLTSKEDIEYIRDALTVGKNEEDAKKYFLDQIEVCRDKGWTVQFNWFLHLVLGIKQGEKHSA

Compound: Nc1ncnc2c1c(-c1ccc(Oc3ccccc3)cc1)nn2[C@@H]1CCCN(C(=O)c2cn(CCOCCOCCOCCNc3cccc4c3C(=O)N(C3CCC(=O)NC3=O)C4=O)nn2)C1 (some centres undefined)
GI50 (HBL): 28 nM

Compound: CC(C)Oc1ccc(-c2nn([C@H](C)c3oc4ccc(F)cc4c(=O)c3-c3cccc(F)c3)c3ncnc(N)c23)cc1F
Kd [1]: > 1400 nM
Kd [2]: > 10000 nM
Kd [3]: > 10000 nM

IC50 [4]: < 3 nM
IC50 [5]: < 3 nM
IC50 [6]: 9 nM
Compound: CN1CCN([C@H]2CC[C@H](n3cc(-c4ccc(Oc5ccccc5)cc4)c4c(N)ncnc43)CC2)CC1

Compound: COc1cccc2cc(-c3nc([C@H]4CC[C@H](C(=O)O)CC4)n4ncnc(N)c34)[nH]c12 [OSI-027]
inhibition in vivo at 25 mg/kg (MDA-MB-231 [7]): 90%
inhibition in vivo at 65 mg/kg (MDA-MB-231 [8]): 100%
